Experimental data as given in patent publication US7718613B2, “Armed peptides” (priority 2001, dated 2010).
The star is where a group is joined. Biotin = O=C1N[C@H]2[C@H](CS[C@H]2CCCCC(=O)*)N1; Myristoyl = CCCCCCCCCCCCCC(=O)*

Tests used:
[1] = Cytolytic activity of pH-responsive peptides on calcein liposomes at different pH; details: liposomes 4 μM lipid; 14 nM peptide 2, 20 nM peptide 7, 45 nM peptide 9; FIG. 4
Method: Liposomes encapsulating calcein dye were prepared by an extrusion method (Biochim. Biophys. Acta, 812 (1985) 55). Phophatidylcholine (50 mg) and cholesterol (13.08 mg) which had been dissolved in 4 ml of 50% v/v chloroform methanol solution were evaporated to form a lipid film in a round bottom flask. If it is essential to follow the fate of liposomes a lipohilic-dye such as DiI (50 μg) could be incorporated into the lipid film prior to hydration. The film was then hydrated with 4 ml of 120 mM calcein solution prepared in 10 mM sodium phosphate 20 mM Sodium chloride buffer pH 7.4. Liposomes were formed by 10 extrusion cycles through 0.2 micron or 0.1 um polycarbonate filters using the Liposofast 100 (Avestin) extruder device. The non encapsulated dye was removed by gel filtration on a PD-10 column using iso-osmotic buffer. The total lipid concentration of the liposomes was measured by the Stewart assay and adjusted to 3 mg per ml.
The cytolytic activity of pH-responsive peptides was followed by adding 2 or 3 μl of liposomes to a 2 ml assay volume and continually recording fluorescence. Buffers were made of 10 mM Na phosphate, 140 mM NaCl, 1 mM EDTA, 5 mM HEPES at several different pH values. […] In the experiments 2 ml of 10 mM Na phosphate, 140 mM NaCl, 1 mM EDTA, 5 mM HEPES buffer (at pH values indicated on the figure) containing liposomes (4 μM lipid) and (A) 14 nM peptide 2, (B) 20 nM peptide 7 (C) 45 nM peptide 9. In all cases peptides were added indicated by sharp dip in fluorescence were used. The pH values are as indicated for each trace. […] In general, it is well documented that many proteins including receptors, enzymes and antibodies has pH optimum usually closer to physiological value. On either side of the pH optimum the binding activity is reduced. However in general as activity profile is typically bell shape most proteins would tolerate at least a pH unit shift from optimum. Obviously the closer the results are to pH 7.4 the higher chances their are for efficient binding with target proteins or receptors.

[2] = Detection of biotin by pH arming (avidin cloaking, calcein liposomes)
Source text: The modified peptide retained its activity and pH responsive properties upon modification with biotin. […] In FIG. 2, the curves from top to bottom represent (i) Peptide at pH 6.6, (ii) Peptide at pH 8 and (iii) background signal in the absence of any peptide. In FIG. 2A, the curves from top to bottom represent peptide in the presence of (i) 11 piccolos of biotin and 1,2 fold excess avidin at pH 6.6, (ii) 1.2 fold excess avidin at pH 6.6, (iii) 11 piccolos of biotin and 1.2 fold avidin at pH 8 and (iv) 1.2 fold excess avidin at pH 8.
The biotin assay using pH sensitive peptide was repeated in a glass vial which could be illuminated with a small torch or blue LED light source. Specifically, the vials contained 1.2 ml of biotinylated hybrid peptide (17 nM) in PBS buffer pH 6.2 containing calcein liposomes ([…]) and 1.2 fold excess avidin. Biotin was present in vials 3 to 6 in increasing concentration. Vials are as follows: (1) Background sample containing liposomes only, (2) no biotin, (3) 12 pmoles biotin, (4) 15 pmoles biotin, (5) 17 pmoles biotin, (6) 50 pmoles Samples were illuminated by simple 3 mm blue diodes from underneath the cuvettes. Photographs in the order top to bottom, were taken at indicated times from addition of liposomes. The actual fluorescence readings taken on a fluorimeter at five minute period are also shown graphically. Five minutes after the addition of all reagents the fluorescence became clearly visible to the naked eye compared to the background which remained low and constant allowing detection of 12 picomole of biotin rapidly without any instrumentation. (FIG. 3). However, instrumentation available in most laboratories (e.g., fluorescence, absorption, luminescence, electrochemical, biosensors), can also be used for quantitative analysis by changing the signal development molecules incorporated into the liposomes.
Peptides were prepared at concentrations ranging from 1 to 0.01 mg/ml, depending on the activity of peptide, in deionised. A stock solution of avidin (5 unit per ml, one unit of avidin binds 1 μg of biotin.) was prepared in PBS pH 7.4 buffer. Biotin, from a stock solution of 10 mg/ml prepared in DMSO, was diluted 10000 fold with water to obtain working concentrations of 1 μg/ml. A typical cytolytic assay was performed in a total volume of 2 ml PBS buffer containing calcein liposomes (5 μM lipid) as prepared above. The progress of dye leakage was continually followed using excitation and emission wavelengths of 490 and 520 nm respectively. Peptide of known concentrations-was added at certain time points and the solution was rapidly mixed while continuing to measure signal. For uncloaking the peptide activity using biotin, the additions were made to the buffer sequentially in the order avidin, 2 minute incubation with biotin followed by the addition of biotinylated peptide (44 nM). The mixture was incubated for filter 2 minutes and fluorescence measurement initiated. At selected time points liposomes (7 μM) were added and solution mixed. For the cloaking experiments the additions were essentially the same except no free biotin was added. The avidin concentration was a 1.2 fold excess units to ensure complete cloaking. For evaluating dual trigger switching properties of biotinylated peptide the liposomes (7 μM lipid) in 2 ml of buffer were treated with peptide. (2.8 nM) and fluorescence measured continually. For cloaking experiments and pH arming the peptide solution (2.8 nM) was incubated with a 1.2 fold excess of avidin solution for 3 minutes and the cytolytic assay performed at pH 6.6 and 8. For the uncloaking experiments the avidin was pre-incubated with 11 picomoles of biotin solution.
In the control sample, liposomes (4 μM lipid) were added to 1.2 ml solution of peptide (14 nM) pre-incubated with a 1.2 fold excess avidin. Test samples contained biotin at known concentrations. […]

[3] = Liposome-peptide integral complex: pH-triggered calcein release and stability; details: complex tested 40 minutes from preparation; FIG. 9
Source text: A fatty acid incorporated on the N-terminal of peptide anchors the sequence with liposomes to form integral complex which can then be used as single stable reagent that can be triggered to release the contents-of the liposomoes when the pH is ideal (i.e physiological 7.4) or acidic (e.g 6.2). In the first instance we prepared the liposome-peptide complex at a predetermined ratio of lipid-to peptide (30:1) in pH 8 buffer using peptide 10. […] The complex between liposomes and peptide was formed by adding peptide to […] of 10 mM NaP containing 140 mM NaCl, 1 mM EDTA, 5 mM Hepes pH 8 buffer, containing 100 μl of calcein encapsulating liposomes. The mixture was incubated for 20 mins to form the complex prior to use. In order to ascertain that the lysis is occurring due to the formation of complex and not as the action of the peptide per se it was essential to purify the liposome-peptide complex. The peptide to lipid ratio in this complex is 1:30. The complex was applied to a Sepharose CL-6B column. Fractions corresponding to liposomes were collected as clearly visible to the eye. Aliquots of these fractions were then tested for lytic activity at acidic and physiological pH values. The key aim was to establish that the peptide is liposome associated and would thus be eluted with liposome fraction in the void volume. We used 100 μl complex (a column purified fraction) and followed the release of Calcein at two different pH values.
FIG. 8A. […] Upper curve pH 5.8. Lower curve pH 7.4.
2 ml buffer (10 mM Na phosphate, 140 mM NaCl, 1 mM EDTA, 5 mM HEPES)+50 μl purified complex. Lipsomes used were 50 nm extruded. Curves top to bottom are pH 6.2, 6.4, 6.7, 7.0, 7.4
Complex 20 μl liposomes+60 μl pH 8 buffer+20 μl peptide (0.1 mg/ml) prepared and used within 2 minutes. 10 μl was added to each of the cuvettes containing 2 ml buffers. Top curve pH 6.2 (triton was added towards the end indicated by sharp dip in fluorescence to check full lysis), the lower curve is at pH 7.4. Samples measured simultaneously.
5 μL of complex in 2 ml of buffer tested 20 minutes after preparation. Upper curve pH 6.2, Lower curve pH 7.4.
5 μL of complex in 2 ml of buffer tested 5 hrs after preparation. Upper curve pH 6.2 and lower curve pH 7.4.
5 μL of complex in 2 ml of buffer tested 24 hrs after preparation curve pH 6.2, Lower curve pH 7.4.

Rif-1 allografts = assay: In vivo imaging of calcein release, dorsal window chamber with implanted tumours; set-up: species or system mice; details: for calcein fluorescence in tumour after armed complex relative to control liposomes: 100 μl complex via tail vein, untreated (No MIBG/glucose) mice, FIG. 10
Method: Similar methodology could be used for in vivo imaging of tumours whereby the payload is a marker or diagnostic reagent sequestered inside liposomes. For instance, when using the dye calcein, the pH released dye would be detected by increase in green fluorescence. […] Complex was prepared from biotinylated peptide (1) by adding 10 μl of pH 8 buffer to 41 μg of peptide to which was added 150 μl of Hposomes encapsulating calcein. The complex was incubated briefly and 100 μl was injected via the tail vein into mice with implanted tumours. The control mice were given equivalent levels of untreated liposomes. Using the dorsal window chamber model (Biophysics. 1997,1785-1790 & Nature Biotechnology 1999,17,1033-1035,) with implanted tumours (Rif-1 allografts) direct in vivo examination of the calcein in and around the tumours was made by fluorescence microscopy and computer controlled time-lapse images. […] Note that many tumours in animals and human, Rif-1 being one example, have an ambient pH that is slightly lower than that of normal tissue (Science 1980, 210,1253-1255 & Cancer Res 1989,4373-4384). This pathophysiological feature of tumours may be used for cancer detection. Thus unarming the complex which triggers below but close to physiological pH causes the release of dye almost immediately. This way the armed complexes can be used for in vivo detection of disease and particularly for the detection of cancer. Similarly, if the payload was combination of calcein dye and anticancer drug it would be possible to detect and treat with same formulation offering major advantages for diagnosis and treatment.

Substance | pH of triggering (pH profile of calcein release from liposomes) [1] [pH] | cloaking of the complex by avidin binding ([2]; 1.2 fold excess avidin) | release in the presence of analyte (biotin) and avidin at acidic pH ([2]; biotin, 1.2 fold excess avidin, pH 6.6) | release in the presence of analyte (biotin) and avidin at pH 8 ([2]; biotin, 1.2 fold excess avidin, pH 8) | amount of biotin detected by naked eye ([2]; glass vial, blue LED, five minutes, PBS pH 6.2, 1.2 fold excess avidin) [picomole] | activity of peptide-liposome complex at acidic pH ([2]; pH 6.6, FIG. 2) | activity of peptide-liposome complex at alkaline pH ([2]; pH 8, FIG. 2) | triggering of complex [3] | calcein fluorescence in tumour after armed complex relative to control liposomes (Rif-1 allografts) | calcein fluorescence in tumour after armed complex relative to control liposomes (Rif-1 allografts; listed as biotinylated peptide (1)) | triggering pH relative to another peptide (Rif-1 allografts; mouse, in vivo)
Myr-EAALAEALAEALAEGKPALISWIRRRLQQ-amide (Myristoyl-EAALAEALAEALAEGKPALISWIRRRLQQ-NH2; SMILES CCCCCCCCCCCCCC(=O)N[C@@H](CCC(=O)O)C(=O)N[C@@H](C)C(=O)N[C@@H](C)C(=O)N[C@@H](CC(C)C)C(=O)N[C@@H](C)C(=O)N[C@@H](CCC(=O)O)C(=O)N[C@@H](C)C(=O)N[C@@H](CC(C)C)C(=O)N[C@@H](C)C(=O)N[C@@H](CCC(=O)O)C(=O)N[C@@H](C)C(=O)N[C@@H](CC(C)C)C(=O)N[C@@H](C)C(=O)N[C@@H](CCC(=O)O)C(=O)NCC(=O)N[C@@H](CCCCN)C(=O)N1CCC[C@H]1C(=O)N[C@@H](C)C(=O)N[C@@H](CC(C)C)C(=O)N[C@H](C(=O)N[C@@H](CO)C(=O)N[C@@H](Cc1c[nH]c2ccccc12)C(=O)N[C@H](C(=O)N[C@@H](CCCNC(=N)N)C(=O)N[C@@H](CCCNC(=N)N)C(=O)N[C@@H](CCCNC(=N)N)C(=O)N[C@@H](CC(C)C)C(=O)N[C@@H](CCC(N)=O)C(=O)N[C@@H](CCC(N)=O)C(N)=O)[C@@H](C)CC)[C@@H](C)CC) [peptide 2] | ~7 | – | – | – | – | – | – | – | – | – | –
Myr-GIGAVLRVLTTG(TLLEFLLEELLEFL)KPALISWIRRRQQ-Amide [peptide 7] | ~7 | – | – | – | – | – | – | – | – | – | –
Myristoyl-EAALAEALAEALAEGK(Biotin)PALISWIRRRLQQ-NH2 [peptide 1] | – | efficiently cloaked | triggered | only slight release | 12 | active | inactive | trigger in acidic media | significant release of payload | intense image | closer to physiological pH than peptide 9
